The text below walks through data of patent publication US9078872B2, “Antioxidant composition” (Symrise AG, priority 2013, dated 2015).

The assay can be described thus: ORAC (OARC-fluorescein) determination of the antioxidant effect, Trolox as standard. As to conditions: OARC-fluorescein method; calibration curve with Trolox as standard. Here is the method:
The antioxidant effect and the synergy between the individual components were determined according to the OARC-fluorescein method, in which inhibition time and the inhibition degree are reflected in a measured value. The measurements were performed by means of the device Synergy H4 by BioTek Inc., the calculated values were taken from a calibration curve with Trolox used as a standard. The method is described in more detail, for example, in the publications by Prior et. al., J. Agric Food. Chem. 50, pp. 4437-4444 […] and Dovalos et. al, ibid 52, pp. […] (2004). These publications are incorporated into this patent application by reference with regard to the description of the measuring method.

Turning to `O=C(O)/C=C/c1ccc(O)c(O)c1` [Example V1, Caffeic acid], the “ORAC value, Measured” value is given as 21.587.
Regarding `COc1cc(C=CC(=O)O)cc(OC)c1O` (stereo in doubt) [Example V2, Sinapinic acid], the “ORAC value, Measured” value turned out to be 11.459.
